NC(N)=S
Conditions | solubility (mole fraction)
in ethanol, 292.65 K | 0.0224
in ethanol, 293.85 K | 0.0227
in ethanol, 299.45 K | 0.0256
in ethanol, 302.75 K | 0.0281
in ethanol, 305.85 K | 0.0295
in ethanol, 308.95 K | 0.0324
in ethanol, 309.4 K | 0.0331
in ethanol, 311.65 K | 0.0345
in ethanol, 312.55 K | 0.035
in ethanol, 312.75 K | 0.0353
in ethanol, 313.9 K | 0.0364
in ethanol, 314.35 K | 0.0375
in ethanol, 315.55 K | 0.0384
in ethanol, 316.4 K | 0.0386
in ethanol, 318.2 K | 0.0399
in ethanol, 320 K | 0.0422
in methanol, 298.65 K | 0.0534
in methanol, 301.45 K | 0.0565
in methanol, 304.35 K | 0.0606
in methanol, 307.85 K | 0.0643
in methanol, 309.05 K | 0.0667
in methanol, 311.25 K | 0.0702
in methanol, 314.55 K | 0.0761
in methanol, 319.45 K | 0.0821
in methanol, 321.25 K | 0.0872
